In the test the test system is d(CTG)16 (DNA, repeat) GGGCTGCTGCTGCTGCTGCTGCTGCTGCTGCTGCTGCTGCTGCTGCTGCTGCCC
Description: ITC. Particulars: monomer alone.

As usually defined, the Kd is the equilibrium constant for the complex coming apart. Read a high Kd as lower affinity.

`N=C(NCCCCNc1nc(N)nc(NCc2ccc(C=O)cc2)n1)c1ccc(C(=N)NCCCCNc2nc(N)nc(NCc3ccc(C=O)cc3)n2)cc1` came in with a Kd of 81.6 ± 0.9 µM.

For the molecule `N=C(NCCCCNc1nc(N)nc(NCc2ccc(N)cc2)n1)c1ccc(C(=N)NCCCCNc2nc(N)nc(NCc3ccc(N)cc3)n2)cc1`, the dissociation constant (Kd) is more than 100 µM.

The values above are taken from publication PMC9733911 (2022).
